The values that follow come from patent publication US20020085997A1, “TUMOUR VACCINE AND PROCESS FOR THE PREPARATION THEREOF” (priority 1995, published 2002).

The subject of this experiment is highly tumorigenic variant of the M-3 cells. In kind it is in vivo, mice.

In the case of “LFEAIEGFI [Leu Phe Glu Ala Ile Glu Gly Phe Ile, viral peptide derived from the influenza virus haemagglutinin, H2-K^d-ligand, used as foreign peptide to charge tumour cells]”, the animals cured (cells charged with peptide using TfpL/DNA complexes) was 6 out of 8. The animals developed tumours (peptide simply mixed with the cells (adjuvant)) is given as 7 out of 8.
